Reference: patent publication US8003595B2, “Amino acid sequences facilitating penetration of a substance of interest into cells and/or cell nuclei” (Cellectis, priority 2000, dated 2011)
Where two headings read alike, the source gives them in different places. Marks after values point to notes of the source that are not given here. Where no end group is shown, it is not given here.

Legend:
cells = experiment: Penetration of biotinylated peptides inside cells (microscopy, S-PO coloration); type: cell-based; settings: biotinylated peptides 50 to 6 μg/ml, 1-18 hours, revealed with S-PO
Procedure: The cells are cultivated in the presence of the different peptides carrying, on the N-terminal side, biotin in decreasing concentrations (50 to 6 μg/ml) in the culture medium for variable times (1-18 hours).
At the end of the culture, the cells are washed three times with PBS (0.15 M NaCl buffered with 0.01 M potassium phosphate buffer pH 7.4) then fixed 15 minutes in ethanol at −20° C. The penetration of the peptide is evaluated after incubation for 30 minutes with streptavidin conjugated with peroxidase (abbreviated S-PO for streptavidin-peroxidase). Then, the S-PO is eliminated, and the cells are washed. […] With the other peptides, positive colorations, but of variable intensity, were noted.

H1299 cells [1] = experiment: Internalization of biotinylated peptide/S-PO complexes; type: cell-based, human
Procedure: A biotinylated/S-PO peptide or biotinylated/A-PO complex (A-PO for avidin-peroxidase) is prepared extemporaneously in two ways:
1) either in a peptide: S-PO or A-PO molar ratio of 4:1 (for example, 1.4 μg of peptide with a molecular weight of 3500 to 10 μg of S-PO; the weight of S-PO used varies depending on the peptides since their molecular weights are different).
2) or in a peptide: S-PO or A-PO molar ratio of 25:1 (for example 1.7 μg of peptide with a molecular weight of 3500 to 1 μg of S-PO).
The complexes are prepared by incubating the biotinylated peptide with S-PO or A-PO in PBS in a volume of 5 to 10 μl for 15 minutes at laboratory temperature. They are then diluted in 1 ml of complete culture medium, filtered on a 0.2 micron membrane and incubated with the cells for 4 hours. The cells are then washed three times with PBS.
To study the penetration of the complexes under a microscope, the cells are fixed as before for 15 minutes in ethanol at −20° C., they are washed with PBS, and the activity of the internalized peroxidase is shown by diaminobenzidine in the presence of H2O2. To measure the quantity of peptide/S-PO or A-PO complexes internalized, the cells are trypsinized, transferred into microtubes and counted. They are washed twice by centrifugation, then the residue is suspended in 200 μl of lysis buffer (Tris buffer, 0.1 M, pH8, 0.5% Nonidet). After 15 minutes, the peroxidase contained in the lysis buffer is dosed onto 96-well plates with ortho-dianisidine and H2O2 by comparison with a standard curve for S-PO. The reading is taken at 450 nm. The quantity contained in the different samples is expressed in picograms (pg) per 10^4 cells.
Table 7 below reports the results of evaluating the influence of SEQ ID NO: 1 on the penetration of peptides coupled to SEQ ID NO: 1 into H1299 cells, where
Concentration a: 25 peptides to one molecule of S-PO (1 μg),
Concentration b: 4 peptides to one molecule of S-PO (10 μg).

[2] = ELISA fixation of biotinylated peptides on sensitized plates; type: binding; settings: for EC50: Table 4, read-out: avidity: quantity of peptides necessary to obtain 50% fixation, Chondroitin C; for Kd: read-out: avidity (Kd), quantity of peptides necessary to obtain 50% fixation, Chondroitin C, Table 5
[3] = as above; type: binding; settings: for EC50: ELISA plates sensitized with heparin, Table 4, read-out: avidity: quantity of peptides necessary to obtain 50% fixation, Heparin; for Kd: read-out: avidity (Kd), quantity of peptides necessary to obtain 50% fixation, Heparin
Procedure: (§1) The capacity of peptides SEQ ID NO: 1 to 21 to attach themselves to DNA and heparin is evaluated on ELISA plates sensitized with DNA or heparin. Dilutions of biotinylated peptides are deposited on the plates and their fixation is shown using streptavidin conjugated with peroxidase. […] The avidity of each of the peptides for DNA or heparin is evaluated by the quantity (×10^−6 M) of peptides necessary to obtain 50% fixation.

DNA = experiment: as above; type: binding; settings: ELISA plates sensitized with DNA; read-out: avidity: quantity of peptides necessary to obtain 50% fixation, DNA
Procedure: as §1

[4] = as above; type: binding; settings: for EC50: Table 4, read-out: avidity: quantity of peptides necessary to obtain 50% fixation, Chondroitin A; for Kd: read-out: avidity (Kd), quantity of peptides necessary to obtain 50% fixation, Chondroitin A, Table 5
[5] = as above; type: binding; settings: for EC50: Table 4, read-out: avidity: quantity of peptides necessary to obtain 50% fixation, Chondroitin B; for Kd: read-out: avidity (Kd), quantity of peptides necessary to obtain 50% fixation, Chondroitin B, Table 5
H1299 cells [6] = experiment: Internalization of covalent peptide-peroxidase conjugates; type: cell-based, human; settings: for quantity of peptide internalized: 2 hours
Procedure: To evaluate more directly the penetration of the peptides, avoiding the avidin-peroxidase bias, some of the peptides in sequences SEQ ID NO: 25 to 48 were conjugated covalently with cysteine in the C-terminal position of the peptide to peroxidase. The peptides were coupled with peroxidase in the following way:
One mg of peroxidase activated with maleimide (Sigma) in 100 μl of sodium phosphate buffer, NaCl 0.15 M, EDTA 5 mM, had 1 mg of peptide added to it. After 2 hours at laboratory temperature, β-mercaptoethanol is added to a final concentration of 1.5 mM for 15 minutes. The uncoupled peptide is eliminated by centrifugation on ultrafiltration membranes (cut-off threshold=30,000 Daltons, Sartorius), followed by three washings in sodium phosphate buffer 0.1 M, pH 7.4 containing 0.15 M NaCl.
The H1299 cells are incubated for 2 hours with the conjugates at increasing concentrations of peptide-peroxidase in the culture medium, then washed with PBS. The cells are lysed and the quantity of peptide internalized is evaluated by the dosage of peroxidase in the lysate of the cells with reference to a curve established with peptide-peroxidase.
The quantity of peptide internalized (pg/10^3 cells), depending on the concentrations of conjugates in the culture medium, is shown in Table 8 below.
It appears that the higher the concentration of peptide-peroxidase conjugate in the culture medium, the more the quantity internalized increases. To compare the penetration of the conjugates by cell type, the cells from different lines were incubated with 0.2 μg/ml of peptide-peroxidase conjugate for 2 hours, and the quantity of peroxidase dosed in the lysates. Table 9 and Table 9B below give the results expressed in pg/10^3 cells. The quantity of each peptide internalized in the different lines generally varies only from single to double.

[7] = peptide: S-PO complexes of 4:1, peptide concentration of 1 μg
[8] = Conc. a: 25 peptides to one molecule of S-PO (1 μg)
[9] = Conc. b: 4 peptides to one molecule of S-PO (10 μg)

Row | Substance | EC50 [2] [nM] | EC50 [3] [nM] | EC50 (DNA) [nM] | EC50 [4] [nM] | EC50 [5] [nM] | further results
1 | VKRGLKL (listed as Homo sapiens) [SEQ ID NO: 1, Peptide reacting with heparin from human lipoprotein B] |  |  |  |  |  | intracellular cytochemical coloration (cells): do not give any positive intracellular cytochemical coloration; S-PO internalized (H1299 cells [1]; [7]): 3 pg/10^4 cells
2 | KSRKKSRK [compound 19] | > 74000 | > 74000 | > 74000 | > 74000 | > 74000 | 
3 | VRRSGRVVVPAAPRNRD [compound 8] | > 150000 | > 150000 | > 150000 | > 150000 | > 150000 | 
4 | VKRGLKLVRRSGRVVVPAAPRNRD [compound 9] | > 8000 | 3700 | 3700 | 17 | 500 | 
5 | TYYSDTVKGRFTRQKYNKRA [compound 6] | 220 | 160 | 190 | 240 | 250 | 
6 | RKGFYKRKQCKP [compound 20] | 100 | 70 | 90 | 60 | 40 | 
7 | LRRERQSRLRRERSQSR [SEQ ID NO: 39] |  |  |  |  |  | Kd [2]: 100 nM; Kd ([3]; Table 5): 100 nM; Kd [4]: 100 nM; Kd [5]: 100 nM
8 | RKGFYKRKQCKP [SEQ ID NO: 20] |  |  |  |  |  | Kd [2]: 100 nM; Kd ([3]; Table 5): 70 nM; Kd [4]: 60 nM; Kd [5]: 40 nM; S-PO internalized (H1299 cells [1]; [7]): 431 pg/10^4 cells
9 | SEQ ID NO: 5: Peptide containing SEQ ID NO: 1 and SEQ ID NO: 4 (VKRGLKLRQKYNKRAMDY; Homo sapiens - Mus musculus - Rattus norvegicus) |  |  |  |  |  | intracellular cytochemical coloration (cells): intense coloration; S-PO internalized (H1299 cells [1]; [8]): 100 pg/10^4 cells; S-PO internalized (H1299 cells [1]; [9]): 6250 pg/10^4 cells
10 | SEQ ID NO: 19: Dimer of SEQ ID NO: 18 (KSRKKSRK; not fully specified; listed as Homo sapiens) |  |  |  |  |  | intracellular cytochemical coloration (cells): Faint coloration; S-PO internalized (H1299 cells [1]; [7]): 167 pg/10^4 cells
11 | SEQ ID NO: 12: Peptide containing the NLS sequence of cells 3T3 and SEQ ID NO: 6 (NVKKPKLTYYSDTVKGRFTRQKYNKRA; Mus musculus x Rattus norvegicus) |  |  |  |  |  | intracellular cytochemical coloration (cells): do not give any positive intracellular cytochemical coloration
12 | KSRK [compound 18] | > 134000 | > 134 | > 134000 | > 134000 | > 134000 | 
13 | VKRGLKLVKRGLKLVKRGLKL [compound 3] | 35 | 41 | 50 | 37 | 41 | 
14 | LRKRLLRD [compound 17] | > 150000 | > 150000 | > 150000 | > 150000 | > 150000 | 
15 | RHVRPRVTRMDVVKRGLKLRHVRPRVTRMDV [compound 16] | 2 | 24 | 19 | 12 | 9 | 
16 | RKKRRRGDRKKRRRGD [SEQ ID NO: 28] |  |  |  |  |  | percentage of quantity of peroxidase internalized compared to quantity deposited (H1299 cells [6]; 0.01 μg/ml): (0.006)* %; percentage of quantity of peroxidase internalized compared to quantity deposited (H1299 cells [6]; 0.1 μg/ml): (1.6) %; percentage of quantity of peroxidase internalized compared to quantity deposited (H1299 cells [6]; 0.5 μg/ml): (7.6) %; percentage of quantity of peroxidase internalized compared to quantity deposited (H1299 cells [6]; 1 μg/ml): (8.8) %; quantity of peptide internalized (H1299 cells [6]; peptide-peroxidase 0.01 μg/ml): 0.006 pg/10^3 cells; quantity of peptide internalized (H1299 cells [6]; peptide-peroxidase 0.1 μg/ml): 1.7 pg/10^3 cells; quantity of peptide internalized (H1299 cells [6]; peptide-peroxidase 0.5 μg/ml): 37.9 pg/10^3 cells; quantity of peptide internalized (H1299 cells [6]; peptide-peroxidase 1 μg/ml): 8860 pg/10^3 cells; avidity (Kd), quantity of peptides necessary to obtain 50% fixation, Heparin ([3]; Table 5): lost its affinity for heparin; Kd ([3]; Table 5): 407 nM
17 | VKRGLKLVKRGLKL [compound 2] | 550 | 760 | 2200 | 550 | 600 | 
18 | SEQ ID NO: 11: SEQ ID NO: 1 and CDR3 of the human anti-DNA monoclonal antibody RT72 (VKRGLKLGYYDFWSGPGKN; listed as Homo sapiens) |  |  |  |  |  | intracellular cytochemical coloration (cells): do not give any positive intracellular cytochemical coloration
19 | VKRGLKLRQKYNKRAMDY [compound 5] | 110 | 110 | 110 | 130 | 110 | 
20 | GRPRESGKKRKRKRLKP [compound 21] | 120 | 70 | 200 | 120 | 120 | 
21 | RGVRPRVTRMDVRHVRPRVTRMDV [compound 15] | 5000 | > 30000 | 3000 | 200 | 4000 | 
22 | VKRGLKL [compound 1] | > 100000 | > 100000 | > 100000 | > 100000 | > 100000 | 
23 | SEQ ID NO: 15: twice the CDR3 region peptide of anti-DNA human monoclonal antibody NE-1 (RGVRPRVTRMDVRHVRPRVTRMDV; listed as Homo sapiens) |  |  |  |  |  | S-PO internalized (H1299 cells [1]; [8]): 250 pg/10^4 cells; S-PO internalized (H1299 cells [1]; [9]): 6670 pg/10^4 cells
24 | VKRGLKLTYYSDTVKGRFTRQYNKRA [compound 7] | 60 | 50 | 50 | 60 | 40 | 
25 | RQKYNKRAMDY [compound 4] | 5000 | 5000 | 4000 | 5600 | 6200 | 
26 | SEQ ID NO: 16: inclusion, in position 13-19, of SEQ ID NO: 1 in SEQ ID NO: 15 (RHVRPRVTRMDVVKRGLKLRHVRPRVTRMDV; listed as Homo sapiens) |  |  |  |  |  | S-PO internalized (H1299 cells [1]; [8]): 430 pg/10^4 cells; S-PO internalized (H1299 cells [1]; [9]): 5220 pg/10^4 cells
